Experimental data: ChEMBL document CHEMBL6074674, “Development of Novel Silicon-Based Hydrophobic Tags (SiHyT) for Targeted Proteins Degradation” (J Med Chem, 2024)
Activity calls are given as the source filed them. The calls are words filed in the database; no cut-off is given here.

Columns and labels:
[1] = system: Kasumi 1; assay: SiHyT-mediated degrader activity at RNF149/PDL1 in human Kasumi 1 cells assessed as increase in PDL1 ubiquitination pretreated with MG132 followed by incubation with compound for 9 hrs by immunoprecipitation based western blot analysis; format: cell-based
[2] = system: Kasumi 1; assay: SiHyT-mediated degrader activity at RNF149/PDL1 in human Kasumi 1 cells assessed as induction of PDL1 degradation at 1 uM pretreated with E1 ligase inhibitor, PYR-41 for 4 hrs followed by incubation with compound for 24 hrs by western blot analysis; format: cell-based
[3] = system: Kasumi 1; assay: SiHyT-mediated degrader activity at RNF149/PDL1 in human Kasumi 1 cells assessed as induction of PDL1 degradation at 1 uM incubated for 3 to 24 hrs by western blot analysis; format: cell-based; settings: time 3-24 hrs
[4] = (§1) SiHyT-mediated degrader activity at RNF149/PDL1 in human Kasumi 1 cells assessed as induction of PDL1 degradation incubated for 24 hrs by western blot analysis; format: cell-based; settings: Kasumi 1, 24 h
[5] = system: Kasumi 1; assay: as §1; format: cell-based
[6] = system: Kasumi 1; assay: SiHyT-mediated degrader activity at RNF149/PDL1 in human Kasumi 1 cells assessed as increase in PDL1 degradation by measuring decrease in PDL1 expression incubated for 12 hrs by proteomics analysis; format: cell-based
[7] = system: Kasumi 1; assay: SiHyT-mediated degrader activity at RNF149/PDL1 in human Kasumi 1 cells assessed as reduction in half life of PDL1 at 1 uM incubated for 6 to 24 hrs in presence of protein synthesis inhibitor, CHX by western blot analysis; format: cell-based; settings: time 6-24 hrs
[8] = system: Kasumi 1; assay: SiHyT-mediated degrader activity at RNF149/PDL1 in human Kasumi 1 cells assessed as induction of PDL1 degradation at 1 uM pretreated with proteasome inhibitor, MG-132 for 4 hrs followed by incubation with compound for 24 hrs by western blot analysis; format: cell-based
[9] = system: E3 ubiquitin-protein ligase RNF149/Epidermal growth factor receptor (Homo sapiens), P00533+Q8NC42 [UNDEFINED MUTATION]; assay: SiHyT-mediated degrader activity at RNF149/EGFR mutant in human HCC827 cells assessed as induction of EGFR degradation at 1 uM cells incubated in serum-free media for 8 hrs followed by incubation with compound for 24 hrs by western blot analysis; format: cell-based
[10] = system: HCC827; assay: Antiproliferative activity against human HCC827 cells assessed as decrease in cell survival measured after 72 hrs by CCK-8 assay; format: functional, cell-based; settings: HCC827, 72 h
[11] = system: E3 ubiquitin-protein ligase RNF149/Epidermal growth factor receptor (Homo sapiens), P00533+Q8NC42 [UNDEFINED MUTATION]; assay: SiHyT-mediated degrader activity at RNF149/EGFR mutant in human HCC827 cels assessed as induction of EGFR degradation at 0.1 uM cells incubated in serum-free media for 8 hrs followed by incubation with compound for 24 hrs by western blot analysis; format: cell-based
[12] = Half life of the compound in human liver microsomes at 1 uM in presence of NADPH by LC-MS/MS analysis; format: ADME, Microsome
[13] = Half life of the compound in mouse liver microsomes at 1 uM in presence of NADPH by LC-MS/MS analysis; format: ADME, Microsome
[14] = Intrinsic clearance of the compound in mouse liver microsomes at 1 uM in presence of NADPH by LC-MS/MS analysis; format: ADME, Microsome; settings: read-out: CLH
[15] = Intrinsic clearance of the compound in human liver microsomes at 1 uM in presence of NADPH by LC-MS/MS analysis; format: ADME, Microsome; settings: read-out: CLH
[16] = system: MOLM-13; assay: SiHyT-mediated degrader activity at RNF149/BTK in human MOLM-13 cells assessed as reduction in half life of BTK at 2.5 uM incubated for 6 to 24 hrs in presence of protein synthesis inhibitor, CHX by western blot analysis; format: cell-based; settings: time 6-24 hrs
[17] = system: MOLM-13; assay: SiHyT-mediated degrader activity at RNF149/BTK in human MOLM-13 cells assessed as increase in BTK degradation by measuring decrease in BTK expression incubated for 12 hrs by proteomics analysis; format: cell-based
[18] = system: MOLM-13; assay: SiHyT-mediated degrader activity at RNF149/BTK in human MOLM-13 cells assessed as induction of BTK degradation at 2.5 uM incubated for 3 to 24 hrs by western blot analysis; format: cell-based; settings: time 3-24 hrs
[19] = system: MOLM-13; assay: (§2) SiHyT-mediated degrader activity at RNF149/BTK in human MOLM-13 cells assessed as induction of BTK degradation incubated for 24 hrs by western blot analysis; format: cell-based
[20] = as §2; format: cell-based; settings: MOLM-13, 24 h
[21] = system: MOLM-13; assay: SiHyT-mediated degrader activity at RNF149/BTK in human MOLM-13 cells assessed as induction of BTK degradation at 2.5 uM pretreated with E1 ligase inhibitor, PYR-41 for 4 hrs followed by incubation with compound for 24 hrs by western blot analysis; format: cell-based
[22] = system: MOLM-13; assay: SiHyT-mediated degrader activity at RNF149/BTK in human MOLM-13 cells assessed as induction of BTK degradation at 2.5 uM pretreated with proteasome inhibitor, MG-132 for 4 hrs followed by incubation with compound for 24 hrs by western blot analysis; format: cell-based
[23] = system: MOLM-13; assay: SiHyT-mediated degrader activity at RNF149/BTK in human MOLM-13 cells assessed as increase in BTK ubiquitination pretreated with MG132 followed by incubation with compound for 9 hrs by immunoprecipitation based western blot analysis; format: cell-based
[24] = system: PC-9; assay: Induction of cell cycle arrest in human PC-9 cells assessed as increase in cell accumulation at G1 phase at 0.01 to 0.1 uM incubated for 24 hrs by propidium iodide staining based flow cytometry; format: functional; settings: dose 0.01-0.1 µM
[25] = system: HCC827; assay: Induction of cell cycle arrest in human HCC827 cells assessed as increase in cell accumulation at G1 phase at 0.01 to 0.1 uM incubated for 24 hrs by propidium iodide staining based flow cytometry; format: functional; settings: dose 0.01-0.1 µM
[26] = system: PC-9; assay: Antiproliferative activity against human PC-9 cells assessed as decrease in cell survival measured after 72 hrs by CCK-8 assay; format: functional, cell-based; settings: PC-9, 72 h

Chain of E3 ubiquitin-protein ligase RNF149/Epidermal growth factor receptor (Homo sapiens), P00533+Q8NC42 [UNDEFINED MUTATION] (P00533 whole entry, looked up, stated change not applied): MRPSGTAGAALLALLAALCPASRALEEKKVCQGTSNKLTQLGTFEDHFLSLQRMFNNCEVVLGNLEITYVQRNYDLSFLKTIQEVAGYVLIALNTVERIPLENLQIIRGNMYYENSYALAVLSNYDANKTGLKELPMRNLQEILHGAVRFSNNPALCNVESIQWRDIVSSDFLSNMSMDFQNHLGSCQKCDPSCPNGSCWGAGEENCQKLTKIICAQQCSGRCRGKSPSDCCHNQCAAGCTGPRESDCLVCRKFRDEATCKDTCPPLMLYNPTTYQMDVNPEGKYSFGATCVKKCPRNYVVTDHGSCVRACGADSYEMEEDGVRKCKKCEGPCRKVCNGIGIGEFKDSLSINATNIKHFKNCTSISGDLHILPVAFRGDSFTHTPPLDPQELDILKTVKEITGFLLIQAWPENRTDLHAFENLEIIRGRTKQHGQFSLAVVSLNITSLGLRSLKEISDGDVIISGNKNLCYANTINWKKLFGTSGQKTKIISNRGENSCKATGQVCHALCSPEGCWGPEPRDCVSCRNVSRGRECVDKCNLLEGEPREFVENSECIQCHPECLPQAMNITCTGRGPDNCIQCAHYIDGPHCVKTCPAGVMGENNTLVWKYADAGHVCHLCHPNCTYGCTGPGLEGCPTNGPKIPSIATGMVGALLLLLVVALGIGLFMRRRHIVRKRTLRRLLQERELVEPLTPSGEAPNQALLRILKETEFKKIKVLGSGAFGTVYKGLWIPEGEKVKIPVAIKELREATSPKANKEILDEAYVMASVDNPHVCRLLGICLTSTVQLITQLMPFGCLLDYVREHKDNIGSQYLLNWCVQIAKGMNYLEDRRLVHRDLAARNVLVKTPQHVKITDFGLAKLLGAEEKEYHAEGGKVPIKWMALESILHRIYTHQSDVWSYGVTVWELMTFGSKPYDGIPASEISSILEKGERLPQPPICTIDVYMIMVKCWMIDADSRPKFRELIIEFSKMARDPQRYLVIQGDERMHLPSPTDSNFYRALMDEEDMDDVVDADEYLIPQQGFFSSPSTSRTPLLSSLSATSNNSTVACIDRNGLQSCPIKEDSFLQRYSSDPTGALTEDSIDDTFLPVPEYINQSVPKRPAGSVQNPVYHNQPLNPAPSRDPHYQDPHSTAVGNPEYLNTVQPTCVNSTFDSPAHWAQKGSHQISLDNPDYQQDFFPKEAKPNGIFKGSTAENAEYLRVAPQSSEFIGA
Chain of E3 ubiquitin-protein ligase RNF149/Epidermal growth factor receptor (Homo sapiens), P00533+Q8NC42 [UNDEFINED MUTATION] (Q8NC42 whole entry, looked up, stated change not applied): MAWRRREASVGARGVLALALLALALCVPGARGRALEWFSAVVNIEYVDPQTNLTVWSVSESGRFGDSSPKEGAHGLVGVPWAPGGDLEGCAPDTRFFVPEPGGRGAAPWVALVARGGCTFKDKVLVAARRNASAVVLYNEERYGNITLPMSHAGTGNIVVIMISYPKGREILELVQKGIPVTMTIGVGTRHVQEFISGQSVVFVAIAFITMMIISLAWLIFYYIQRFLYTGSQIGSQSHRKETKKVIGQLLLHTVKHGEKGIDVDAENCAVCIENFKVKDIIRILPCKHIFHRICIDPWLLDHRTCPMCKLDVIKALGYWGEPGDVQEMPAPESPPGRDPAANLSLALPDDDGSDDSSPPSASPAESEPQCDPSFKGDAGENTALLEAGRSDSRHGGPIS

Row | SMILES | Activity [9] [%] | IC50 [10] [µM] | Activity [11] [%] | also measured
1 | COc1cc(OCc2cccc(-c3ccccc3)c2C)cc(OC)c1CNCc1cn(CCO[Si](c2ccccc2)(c2ccccc2)C(C)(C)C)nn1 |  |  |  | Activity [1]: Active; Activity [2]: inactive; Activity [3]: Time-dependent-effect; DC50 [4]: 0.51 µM; Activity [5]: Active; Activity [6]: Active; Activity [7]: Active; Activity [8]: inactive
2 | COc1cc2ncnc(Nc3ccc(F)c(Cl)c3)c2cc1OCCOCCO[Si](c1ccccc1)(c1ccccc1)C(C)(C)C | 0 | > 10 | 0 | 
3 | CC[Si](CC)(CC)OCCCc1cn(CCOc2cc3c(Nc4ccc(F)c(Cl)c4)ncnc3cc2OC)nn1 | 79.1 | 0.33 | 38.2 | 
4 | COc1cc2ncnc(Nc3ccc(F)c(Cl)c3)c2cc1OCCn1cc(CCCCO[Si](C)(C)C2CCCCC2)nn1 | 53.2 | 0.7 | 46.1 | 
5 | COc1cc2ncnc(Nc3ccc(F)c(Cl)c3)c2cc1OCCCN1CCN(CCCO[Si](c2ccccc2)(c2ccccc2)C(C)(C)C)CC1 | 0 | > 10 | 0 | 
6 | COc1cc2ncnc(Nc3ccc(F)c(Cl)c3)c2cc1OCCn1cc(CCCNC(=O)CC23CC4CC(CC(C4)C2)C3)nn1 |  |  |  | half-life at 1 µM [12]: 1.81 min; half-life at 1 µM [13]: 1.05 min; CLint scaled at 1 µM [14]: 5230 mL/min/kg; CLint scaled at 1 µM [15]: 690 mL/min/kg
7 | COc1cc2ncnc(Nc3ccc(F)c(Cl)c3)c2cc1OCCCCCCCCO[Si](c1ccccc1)(c1ccccc1)C(C)(C)C | 0 | > 10 | 0 | 
8 | COc1cc2ncnc(Nc3ccc(F)c(Cl)c3)c2cc1OCCn1cc(CCCCO[Si](c2ccccc2)(c2ccccc2)C(C)(C)C)nn1 | 58.4 | 0.11 | 28 | 
9 | CC(C)(C)[Si](OCCn1cc(CCC(=O)N2CCC[C@@H](n3nc(-c4ccc(Oc5ccccc5)cc4)c4c(N)ncnc43)C2)nn1)(c1ccccc1)c1ccccc1 |  |  |  | Activity [16]: Active; Activity [17]: Active; Activity [18]: Time-dependent-effect; Activity [19]: Active; DC50 [20]: 2.78 µM; Activity [21]: inactive; Activity [22]: inactive; Activity [23]: Active
10 | COc1cc2ncnc(Nc3ccc(F)c(Cl)c3)c2cc1OCCCN1CCOCC1 [GEFITINIB] |  |  |  | Activity [24]: Dose-dependent-effect; Activity [25]: Dose-dependent-effect; IC50 [26]: 0.013 µM
11 | COc1cc2ncnc(Nc3ccc(F)c(Cl)c3)c2cc1OCCCN1CCN(CCn2cc(CCCO[Si](c3ccccc3)(c3ccccc3)C(C)(C)C)nn2)CC1 | 10.8 | 1.58 | 0 | 
12 | COc1cc2ncnc(Nc3ccc(F)c(Cl)c3)c2cc1OCCn1cc(CCCO[Si](C(C)C)(C(C)C)C(C)C)nn1 | 18.2 | 7.46 | 4.2 | 
13 | COc1cc2ncnc(Nc3ccc(F)c(Cl)c3)c2cc1OCCn1cc(CCCC(=O)NCC2CC3C=CC2C3)nn1 (configuration not stated) |  |  |  | half-life at 1 µM [12]: 9.48 min; half-life at 1 µM [13]: 8.94 min; CLint scaled at 1 µM [14]: 614 mL/min/kg; CLint scaled at 1 µM [15]: 132 mL/min/kg
14 | COc1cc2ncnc(Nc3ccc(F)c(Cl)c3)c2cc1OCCCN1CCN(CCO[Si](c2ccccc2)(c2ccccc2)C(C)(C)C)CC1 | 16.8 | > 10 | 0 | 
15 | COc1cc2ncnc(Nc3ccc(F)c(Cl)c3)c2cc1OCCCN1CCN(CCn2cc(CCCCO[Si](c3ccccc3)(c3ccccc3)C(C)(C)C)nn2)CC1 | 0 | 3.04 | 0 | 
16 | COc1cc2ncnc(Nc3ccc(F)c(Cl)c3)c2cc1OCCn1cc(CCO[Si](C)(C)C2CCCCC2)nn1 | 47 | 0.45 | 12.7 | 
17 | COc1cc2ncnc(Nc3ccc(F)c(Cl)c3)c2cc1OCCCN1CCN(CCn2cc(CCO[Si](c3ccccc3)(c3ccccc3)C(C)(C)C)nn2)CC1 | 58 | 0.99 | 0 | 
18 | COc1cc2ncnc(Nc3ccc(F)c(Cl)c3)c2cc1OCCn1cc(CCCNC(=O)CO[C@@H]2C[C@H](C)CC[C@H]2C(C)C)nn1 |  |  |  | half-life at 1 µM [12]: 4.22 min; half-life at 1 µM [13]: 7.4 min; CLint scaled at 1 µM [14]: 741 mL/min/kg; CLint scaled at 1 µM [15]: 295 mL/min/kg
19 | COc1cc2ncnc(Nc3ccc(F)c(Cl)c3)c2cc1OCCCN1CCN(CCn2cc(CCCCO[Si](C)(C)C3CCCCC3)nn2)CC1 | 18.4 | > 10 | 0 | 
20 | O=C(O)Cc1ccccc1Nc1c(Cl)cccc1Cl [DICLOFENAC] |  |  |  | half-life at 1 µM [12]: 6.96 min; half-life at 1 µM [13]: 50.2 min; CLint scaled at 1 µM [14]: 109 mL/min/kg; CLint scaled at 1 µM [15]: 179 mL/min/kg
21 | COc1cc2ncnc(Nc3ccc(F)c(Cl)c3)c2cc1OCCOCCOCCO[Si](c1ccccc1)(c1ccccc1)C(C)(C)C | 20.1 | > 10 | 0 | 
22 | COc1cc2ncnc(Nc3ccc(F)c(Cl)c3)c2cc1OCCn1cc(CCO[Si](c2ccccc2)(c2ccccc2)C(C)(C)C)nn1 | 72.1 | 0.14 | 46.4 | 
23 | COc1cc2ncnc(Nc3ccc(F)c(Cl)c3)c2cc1OCCCCCCCO[Si](c1ccccc1)(c1ccccc1)C(C)(C)C | 0 | > 10 | 0 | 
24 | COc1cc2ncnc(Nc3ccc(F)c(Cl)c3)c2cc1OCCn1cc(CCCO[Si](C)(C)C2CCCCC2)nn1 | 55.3 | 0.15 | 52.3 | 
25 | COc1cc2ncnc(Nc3ccc(F)c(Cl)c3)c2cc1OCCn1cc(CCCO[Si](C)(C)C(C)(C)C)nn1 | 22.4 | 5.62 | 19.7 | 
26 | COc1cc2ncnc(Nc3ccc(F)c(Cl)c3)c2cc1OCCCN1CCN(CCn2cc(CCCO[Si](C)(C)C3CCCCC3)nn2)CC1 | 13.7 | > 10 | 0 | 
